Measurements as given in patent US10323007B1, “N2N N4-disubstituted quinazoline-2,4-diamines and uses thereof” (University of South Florida, priority 2016, dated 2019).
Values after ≈ are worked out from the molar mass of the structure shown. Where two headings read alike, the source gives them in different places.

Experiments:
human HepG2 cells = type: cell-based
Description: Cytotoxicity assays were performed using human HepG2 cells (human liver epithelial with hepatocellular carcinoma), as described by us previously.^17,24 Cells were cultured in Dulbecco's modified eagle medium (DMEM), supplemented with 10% fetal bovine serum and 1% penicillin-streptomycin for 3 days at 37° C. and 5% CO2. Cells were then diluted to 1×10^5 ml^−1 using fresh DMEM and added to 96 well tissue culture plates at a volume of 100 μL. Plates were incubated for 24 hours at 37° C. and 5% CO2, allowing the cells to adhere to the plastic. […] Plates were then incubated for 48 hours at 37° C. and 5% CO2. After 48 hours the DMEM was removed and 100 μL of new media was added containing MTT (3-(4, 5-dimethylthiazol-2-yl)-2, 5-diphenyltetrazolium bromide), followed by incubation for four hours at 37° C. and 5% CO2. […] Lead compounds were solvated in 100% DMSO for these studies, which served as the negative control. LD50 values were determined for each compound by comparison to vehicle only controls.

A. baumannii 1651 [1] = experiment: MIC assay, strain 1651; type: cell-based, Acinetobacter baumannii; details: Acinetobacter baumannii, strain 1651
Description: (§1) MIC and MBC assays were performed in this study as documented by us previously.^17,23,24,25 The A. baumannii strains used are detailed in Table 7.

A. baumannii 1403 [2] = experiment: minimal bactericidal concentration (MBC) assay, strain 1403; type: cell-based; details: Acinetobacter baumannii, Table 8, read-out: MBC90 1403
Source text: (§2) Lead quinazolines 4, 5, 26, 29, 27, and 30 were selected to be further evaluated for antimicrobial effects. The first assay utilized was a minimal bactericidal concentration (MBC) assay, to assess whether leads compounds were bacteriostatic or bactericidal. The six lead agents were screened to identify their MBC90 towards each of the six A. baumannii isolates used in the SAR studies (Table 8), however for simplicity only the representative data for isolate 1646 is detailed below (Table 6). […] Further to this, we were able to obtain complete eradication of bacterial growth for these two compounds at 1 μM for 24 and 5 μM for 25.
as §1

[3] = system: A. baumannii 1649 biofilm; experiment: biofilm eradication determination assay, strain 1649; type: cell-based, Acinetobacter baumannii; details: 90% biofilm eradication, Table 8
Description: (§3) These assays were performed as described by us previously,^26,24 as follows. Each of the A. baumannii strains were grown overnight in Mueller Hinton Broth (MHB). The next day these were used to seed fresh MHB to an OD600 of 0.5, with 150 μL then added to the wells of a 96 well plate and grown for 24 hours at 37° C. After 24 hours, the planktonic bacteria were carefully removed and fresh MHB was added with increasing concentrations of lead quinazolines. After incubation at 37° C. for 24 hours, planktonic cells were removed and biofilms were washed three times with phosphate buffered saline (PBS). Biofilms were then resuspended in PBS and plated for cell viability on tryptic soy agar. Biofilm recovery was assessed compared to no drug controls, and determined as percent eradication. This was used to determine MBEC90 values (Minimal Biofilm Eradication Concentration), where the viability of cells within the biofilm was reduced by 90%.

[4] = system: A. baumannii 1403 biofilm; experiment: biofilm eradication determination assay, strain 1403; type: cell-based, Acinetobacter baumannii; details: 90% biofilm eradication, Table 8
Description: as §3

A. baumannii 1646 [5] = experiment: MIC assay, strain 1646; type: cell-based, Acinetobacter baumannii; details: Acinetobacter baumannii
Description: as §1

A. baumannii = experiment: MIC assay, A. baumannii isolates (strain not given); type: cell-based, Acinetobacter baumannii; details: Acinetobacter baumannii; most isolates besides the 1652 strain; read-out: MIC against most isolates
Description: as §1

A. baumannii 1650 [6] = experiment: MIC assay, strain 1650; type: cell-based, Acinetobacter baumannii; details: Acinetobacter baumannii, strain 1650
Description: as §1

[7] = system: A. baumannii 1651 biofilm; experiment: biofilm eradication determination assay, strain 1651; type: cell-based, Acinetobacter baumannii; details: 90% biofilm eradication, Table 8
Description: as §3

A. baumannii 1651 [8] = experiment: minimal bactericidal concentration (MBC) assay, strain 1651; type: cell-based; details: Acinetobacter baumannii, Table 8, read-out: MBC90 1651
Source text: as §2, §1

[9] = system: A. baumannii 1652 biofilm; experiment: biofilm eradication determination assay, strain 1652; type: cell-based, Acinetobacter baumannii; details: 90% biofilm eradication, Table 8
Description: as §3

A. baumannii 1649 [10] = experiment: minimal bactericidal concentration (MBC) assay, strain 1649; type: cell-based; details: Acinetobacter baumannii, Table 8, read-out: MBC90 1649
Source text: as §2, §1

A. baumannii 1646 [11] = experiment: minimal bactericidal concentration (MBC) assay, strain 1646; type: cell-based, Acinetobacter baumannii
Source text: as §2, §1

[12] = system: A. baumannii 1646 biofilm; experiment: biofilm eradication determination assay, strain 1646; type: cell-based, Acinetobacter baumannii; details: for MBEC90: Table 6, representative data for isolate 1646; for reduction in biofilm viability: at 50 μM; for reduction in biofilm viability / MBEC90 1646: strain 1646; for MBEC90 1646: 90% biofilm eradication, Table 8 and text
Description: as §3

A. baumannii 1652 [13] = experiment: minimal bactericidal concentration (MBC) assay, strain 1652; type: cell-based; details: Acinetobacter baumannii, Table 8, read-out: MBC90 1652
Source text: as §2, §1

A. baumannii 1652 [14] = experiment: MIC assay, strain 1652; type: cell-based, Acinetobacter baumannii; details: Acinetobacter baumannii, strain 1652
Description: as §1

A. baumannii 1403 [15] = experiment: MIC assay, strain 1403; type: cell-based, Acinetobacter baumannii; details: Acinetobacter baumannii, strain 1403
Description: as §1

[16] = system: A. baumannii 1650 biofilm; experiment: biofilm eradication determination assay, strain 1650; type: cell-based, Acinetobacter baumannii; details: 90% biofilm eradication, Table 8
Description: as §3

A. baumannii 1650 [17] = experiment: minimal bactericidal concentration (MBC) assay, strain 1650; type: cell-based; details: Acinetobacter baumannii, Table 8, read-out: MBC90 1650
Source text: as §2, §1

A. baumannii 1649 [18] = experiment: MIC assay, strain 1649; type: cell-based, Acinetobacter baumannii; details: Acinetobacter baumannii, strain 1649
Description: as §1

A. baumannii strain 1403 = type: cell-based, Acinetobacter baumannii; details: serial passage, 8 days, start 0.5× MIC
Description: An important attribute of novel antibiotics is the ability to fend off the development of resistance towards their effects. To assess this capacity, A. baumannii strains were incubated overnight with 0.5× MIC of each of the frontrunners. The next day cells were washed and used to inoculate fresh media that contained a two-fold increase in drug. This was repeated for a total of 8 days, alongside sulfamethoxazole (SMX) and trimethoprim (TMP) controls, both of which target the same pathway as our lead agents (FIG. 2).
In order to test potential resistance towards the quinazolines, a serial passage assay was performed alongside control compounds (Sulfamethoxazole and Trimethoprim), as described by us previously.^24 A. baumannii strain 1403 was grown overnight in LB media at 37° C. The next day cultures were diluted 1:100 in fresh media and seeded into a 96-well plate. Lead quinazolines or control agents were added to respective wells at half MIC concentrations. […] These were then grown overnight, and the procedure repeated for a total of eight days.

[19] = at 25 μM (highest concentration tested)
[20] = Tables 1, 3, 4, 5 and footnotes, read-out: 1651 MIC
[21] = lead quinazolines, Table 8, read-out: MIC 1651
[22] = Table 6, representative data for isolate 1646, read-out: MIC
[23] = strain 1646, Tables 1, 3, 4, 5 and footnotes, read-out: 1646 MIC
[24] = strain 1646, lead quinazolines, Table 8, read-out: MIC 1646
[25] = Tables 1, 3, 4, 5 and footnotes, read-out: 1650 MIC
[26] = lead quinazolines, Table 8, read-out: MIC 1650
[27] = Acinetobacter baumannii, 1646, strain 1646, Table 8 and text, read-out: MBC90 1646
[28] = Acinetobacter baumannii, Table 6, representative data for isolate 1646, read-out: MBC90
[29] = Tables 1, 3, 4, 5 and footnotes, read-out: 1652 MIC
[30] = lead quinazolines, Table 8, read-out: MIC 1652
[31] = Tables 1, 3, 4, 5 and footnotes, read-out: 1403 MIC
[32] = lead quinazolines, Table 8, read-out: MIC 1403
[33] = Tables 1, 3, 4, 5 and footnotes, read-out: 1649 MIC
[34] = lead quinazolines, Table 8, read-out: MIC 1649

MIC (A. baumannii 1651 [1]; [20]) [µM] | MIC (A. baumannii 1651 [1]; [21]) [µM] | MIC (A. baumannii 1646 [5]; [22]) [µM] | MIC (A. baumannii 1646 [5]; [23]) [µM] | MIC (A. baumannii 1646 [5]; [24]) [µM] | MIC (A. baumannii) [µM] | MIC (A. baumannii 1650 [6]; [25]) [µM] | MIC (A. baumannii 1650 [6]; [26]) [µM] | MIC (A. baumannii 1652 [14]; [29]) [µM] | MIC (A. baumannii 1403 [15]; [31]) [µM] | MIC (A. baumannii 1649 [18]; [33]) [µM] | Structure (SMILES) | HepG2 cell viability (human HepG2 cells; [19]) [%] | LD50(HepG2) (human HepG2 cells; human, 48 h) [µM] | MBC (A. baumannii 1403 [2]) [µM] | MBEC90 1649 [3] [µM] | MBEC90 1403 [4] [µM] | MBEC90 1651 [7] [µM] | MBC (A. baumannii 1651 [8]) [µM] | MBEC90 1652 [9] [µM] | MBC (A. baumannii 1649 [10]) [µM] | also measured
2 (≈ 0.693 µg/mL) | 20 (≈ 6.93 µg/mL) | 2 (≈ 0.693 µg/mL) | 2 (≈ 0.693 µg/mL) | 2 (≈ 0.693 µg/mL) | 2 (≈ 0.693 µg/mL) | 2 (≈ 0.693 µg/mL) | 20 (≈ 6.93 µg/mL) | 10 (≈ 3.46 µg/mL) | 2 (≈ 0.693 µg/mL) | 2 (≈ 0.693 µg/mL) | CNc1nc(NCc2ccccc2)nc2ccc(C3CCCCC3)cc12 [Compound 30, N^2-Benzyl-6-cyclohexyl-N^4-methylquinazoline-2,4-diamine] | 39 | 11 | 32 (≈ 11.1 µg/mL) | 68 | 21 | 33 | 28 (≈ 9.7 µg/mL) | >100 | 33 (≈ 11.4 µg/mL) | MBC (A. baumannii 1646 [11]; [27]): 1.1 µM (≈ 0.381 µg/mL); MBC (A. baumannii 1646 [11]; [28]): 1.1 µM (≈ 0.381 µg/mL); MBEC90 [12]: 41.2 µM; reduction in biofilm viability [12]: 4.2 log; MBEC90 1646 [12]: 41 µM; MBC (A. baumannii 1652 [13]): 17 µM (≈ 5.89 µg/mL); MIC (A. baumannii 1652 [14]; [30]): 20 µM (≈ 6.93 µg/mL); MIC (A. baumannii 1403 [15]; [32]): 20 µM (≈ 6.93 µg/mL); MBEC90 1650 [16]: 46 µM; MBC (A. baumannii 1650 [17]): 22 µM (≈ 7.62 µg/mL); MIC (A. baumannii 1649 [18]; [34]): 15 µM (≈ 5.2 µg/mL)
2 (≈ 0.689 µg/mL) | 2 (≈ 0.689 µg/mL) | 2 (≈ 0.689 µg/mL) | 2 (≈ 0.689 µg/mL) | 2 (≈ 0.689 µg/mL) | 2 (≈ 0.689 µg/mL) | 10 (≈ 3.44 µg/mL) | 10 (≈ 3.44 µg/mL) | 30 (≈ 10.3 µg/mL) | 2 (≈ 0.689 µg/mL) | 10 (≈ 3.44 µg/mL) | CNc1nc(NCc2ccccc2)nc2ccc(C3=CCCCC3)cc12 [Compound 29, N^2-Benzyl-6-(cyclohex-1-en-1-yl)-N^4-methylquinazoline-2,4-diamine] | 32 | 23 | 22 (≈ 7.58 µg/mL) | 58 | 20 | 21 | 4 (≈ 1.38 µg/mL) | 77 | 9.1 (≈ 3.13 µg/mL) | HepG2 cell viability (human HepG2 cells; at 12 μM): 42%; MBC (A. baumannii 1646 [11]; [27]): 1.5 µM (≈ 0.517 µg/mL); MBC (A. baumannii 1646 [11]; [28]): 1.5 µM (≈ 0.517 µg/mL); MBEC90 [12]: 8.9 µM; reduction in biofilm viability [12]: 1.6 log; MBEC90 1646 [12]: 8.9 µM; MBC (A. baumannii 1652 [13]): 11 µM (≈ 3.79 µg/mL); MIC (A. baumannii 1652 [14]; [30]): 30 µM (≈ 10.3 µg/mL); MIC (A. baumannii 1403 [15]; [32]): 3 µM (≈ 1.03 µg/mL); MBEC90 1650 [16]: 48 µM; MBC (A. baumannii 1650 [17]): 16 µM (≈ 5.51 µg/mL); MIC (A. baumannii 1649 [18]; [34]): 8 µM (≈ 2.76 µg/mL)

Structure (SMILES) | MIC (A. baumannii 1651 [1]; [20]) [µM] | MIC (A. baumannii 1651 [1]; [21]) [µM] | MIC (A. baumannii 1646 [5]; [22]) [µM] | MIC (A. baumannii 1646 [5]; [23]) [µM] | MIC (A. baumannii 1646 [5]; [24]) [µM] | MIC (A. baumannii) [µM] | MIC (A. baumannii 1650 [6]; [25]) [µM] | MIC (A. baumannii 1650 [6]; [26]) [µM] | MIC (A. baumannii 1652 [14]; [29]) [µM] | MIC (A. baumannii 1403 [15]; [31]) [µM] | MIC (A. baumannii 1649 [18]; [33]) [µM] | HepG2 cell viability (human HepG2 cells; [19]) [%] | LD50(HepG2) (human HepG2 cells; human, 48 h) [µM] | MBC (A. baumannii 1403 [2]) [µM] | MBEC90 1649 [3] [µM] | MBEC90 1403 [4] [µM] | MBEC90 1651 [7] [µM] | MBC (A. baumannii 1651 [8]) [µM] | MBEC90 1652 [9] [µM] | MBC (A. baumannii 1649 [10]) [µM] | also measured
COc1cc(Cc2cnc(N)nc2N)cc(OC)c1OC [TMP, trimethoprim, reference compound] | 103 (≈ 29.9 µg/mL) | – | – | 34 (≈ 9.87 µg/mL) | – | – | 120 (≈ 34.8 µg/mL) | – | 103 (≈ 29.9 µg/mL) | 103 (≈ 29.9 µg/mL) | 517 (≈ 150 µg/mL) | – | – | – | – | – | – | – | – | – | HepG2 cell viability (human HepG2 cells; human, 48 h, 25 μM): 45%; increase in MIC over the 8-day test period (A. baumannii strain 1403): 64 fold
